| melting point [°C] | Structure (SMILES) |
| --- | --- |
| 162 to 163 | CC(C)(C)C1=CC(=Cc2ccc([N+](=O)[O-])cc2)C=C(C(C)(C)C)C1=O |
| 57 to 59 | C[Si](C)(C)C#Cc1ccc(I)cc1 |
| 70 to 71 | CCc1nc(C(=O)c2cc(F)c(Cl)cc2Cl)c(C=O)n1C(CC)CC |
| 155 to 157 | CCCCc1cc(SCc2ccc(-c3ccc(C(F)(F)F)cc3)cc2)ccc1OCC(=O)O |
| 101 to 103 | COC(=O)NCc1cc(C(C)=NOCc2ccc(F)cc2)ccc1Cl |
| 57 to 58 | CCCCCCc1ccc(CCCCC(NC(C)=O)(C(=O)OCC)C(=O)OCC)cc1 |
| 140 to 141 | O=c1oc(-c2ccccc2)cc(O)c1SCc1cccc(OCc2ccccc2)c1 |
| 102 | O=C(O)CCC1COc2ccccc2O1 (centres undefined) |
| 273 to 275 | N[C@@H](CS(=O)(=O)O)C(=O)O |
| 155 to 156 | CCOC(=O)c1cc2cc(C=CC(=O)c3ccc(C)cc3)cc(C(C)CC)c2oc1=O (centres undefined) |
| 96 to 97 | COC(=O)CCCc1cc2nc(Cl)ccc2n1S(=O)(=O)c1cccc(N(C)C)c1 |
| 125 to 127 | CCOCOC1CCC2(C)C(=CCC3C2CCC2(C)C3CC3OC4(CCC(C)CO4)C(C)C32)C1 (centres undefined) |
| 38 to 39 | COc1ccc2cc(C(C)CC(C)=O)cc(F)c2c1 (centres undefined) |
| 79 to 81 | Cc1onc(-c2ccccc2Cl)c1CCC(=O)O |
| 232 to 235 | Nc1nnc(-c2cc(Cl)cc(Cl)c2Cl)c(N)n1 |
| 195 to 196 | CN1CCN(c2cccc3c2C[C@H](NC(=O)c2ccccc2)CC3)CC1 |
| 133 to 135 | CCC(CC)c1ccc(Cl)c2nc3n(c12)CCCCN3c1ccc(Cl)cc1 |
| 171 to 172 | Nc1cc([N+](=O)[O-])cnc1Nc1ccccc1F |
| 44 | CCCCCCCCCCCCCCCCCC(=O)NCC(C)(C)CO |
| 244 to 246 | CC(C)(C)c1cc(-c2c(NC(=O)Nc3ccc(F)cc3F)c(=O)oc3ccc(Cl)cc23)cc(C(C)(C)C)c1O |
| 37 to 39 | CCOC(=O)c1c(C(F)F)nc(C(F)(F)F)c(C(=O)OC)c1NC(C)C |
| 52 | CC1(C)c2cc(C#N)ccc2OC1N=C=S (centres undefined) |
| 97 to 120 | Nc1cccc(-c2ccc(OC3CN(Cc4ccccn4)C3)c3ccccc23)n1 |
| 234 to 236 | COc1cccc2c1nc(C(F)F)n2-c1nc(Nc2ccncn2)nc(N2CCOCC2)n1 |
| 131 | Cc1cccc(C)c1NC(=O)CCCl |

| melting point [°C] | Structure (SMILES) |
| --- | --- |
| 92 to 94 | CCCc1cc(NCc2ccc3c(c2)OCO3)nc(SCC#N)n1 |
| 60 to 65 | Cl[Si](Cl)(Cl)Cc1ccc(-c2ccccc2)cc1 |
| 148 to 149 | O=C(C1CCCN1C(=O)CCCN1C(=O)c2ccccc2C1=O)N1CCCC1 (centres undefined) |
| 128 to 131 | O=C(O)COc1c(-c2cccc(Cl)c2)cc(C(=O)NCCCCCCCCOCc2ccc(Cl)cc2)cc1-c1cccc(Cl)c1 |
| 132 to 135 | O=C(Oc1ccccc1)C(=O)Oc1ccccc1 |
| 136 to 137 | COC(=O)c1cc(-c2nc(COc3ccc(C=O)cc3OC)c(C)o2)ccc1C |
| 205 to 206 | CCCC1=C(C(=O)OCC)C(c2cccc(OC)c2OC)c2c[nH]nc2N1 (centres undefined) |
| 114 | Cc1cc(Nc2ccnc(Nc3ccc(S(=O)(=O)N(C)C4CCN(CCS(C)(=O)=O)CC4)cc3)n2)ccc1F |
| 175 | COc1cc2c(cc1OC)CN(C(=O)Cc1ccc(OC)c([N+](=O)[O-])c1)CC2 |
| 65 to 66 | COc1cccc2c1CCCC2CN=[N+]=[N-] (centres undefined) |
| 184 to 185 | CNc1nnc(-c2ccc3occ(-c4ccc(OC(F)(F)F)cc4)c3c2)o1 |
| 220 | COC1CSC2=C(SC1)C(OC(=O)N1CCN(C)CC1)N(c1ccc3ccc(C)nc3n1)C2=O (centres undefined) |
| 138 to 140 | COc1ccc(C(=O)C[N+](=O)[O-])c(O)c1 |
| 169 | Cc1cccc(NC(=O)NCC(=O)N2[C@@H](C(=O)NC(C)(C)C)CC[C@H]2c2ccccc2)c1 (racemic) |
| 210 to 212 | CC1(C)OC(=O)Nc2ccc(-c3cccc(CC#N)n3)cc21 |
| 163 to 164 | O=C(O)c1cc(OCc2ccccc2)nn1-c1ccccc1 |
| 166 to 168 | O=S(=O)(c1ccccc1)N1CC2CCC(C1)O2 |
| 192 | O=C1CCC(c2ccccc2)(c2ccccc2)C2CN(C(Cc3ccccc3)=NCc3ccccc3Cl)CC12 (centres undefined) |
| 50 to 52 | OCc1cc(Cl)c(F)cn1 |
| 95 | CCOC(=O)C(C)Oc1ccc2c(-c3ccc(Cl)cc3)noc2c1 (centres undefined) |
| 166 to 170 | Cc1ncc(C(=O)O)cn1 |
| 225 to 227 | Cc1cc(N2CC=C(C(N)=O)CC2)c2cccc(Br)c2n1 |
| 90 to 92 | CCOC(=O)CCCCC(=O)Oc1cccc(-c2cn3c(n2)sc2ccccc23)c1 |
| 198 to 203 | Cc1ccc2c(c1)C(c1ccc(OCC(=O)O)cc1)C(=O)O2 (centres undefined) |
| 154 to 155 | O=C(O)c1ccccc1COc1cccc(Cl)c1 |

| melting point [°C] | Structure (SMILES) |
| --- | --- |
| 151 to 154 | O=C(O)C(=O)c1ccc(CCCOc2ccc3ccccc3c2)cc1 |
| 143 to 146 | COC(=O)[C@H]1C[C@H](NS(C)(=O)=O)c2c(Cl)cc(Cl)cc2N1 (relative stereo) |
| 157 to 158 | CC(C)=CCc1cc(C(=O)C=Cc2ccc(O)cc2)c(O)cc1O |
| 181 to 182 | CC(C)c1ccc2c(c1)c(Sc1ccccc1)c(C(C)C(=O)O)n2Cc1ccc(Cl)cc1 (centres undefined) |
| 181 | CCc1c(Oc2cnc(N)nc2N)cc(C)c2sccc12 |
| 111 to 112 | Cc1ccccc1C1(O)c2cc(NC(=O)CC(C)(C)C)c(C)c(C)c2OC1(C)C (centres undefined) |
| 269 | Cc1ccc(N2C(=O)C(O)=C(C(=O)c3ccc(OC(F)(F)F)cc3)C2c2ccc(C(C)C)cc2)nn1 (centres undefined) |
| 146 to 147 | CS(=O)(=O)c1cc(C(=O)N=C(N)N)ccc1C(F)(F)F |
| 238 to 240 | Cc1cc2c3c(ccc2cc1Br)OC(=O)C3 |
| 209 to 210 | COc1cc(C2=CCCc3ccccc32)c(Cl)cc1C(=O)N1Cc2cccn2Cc2ccccc21 |
| 186 to 187 | Cc1ccc(-c2cccc(/C=C/C(=O)O)c2)cc1 |
| 175 to 176 | COc1ccc(C2(CC3CO3)S(=O)(=O)CCCS2(=O)=O)cc1OC (centres undefined) |
| 169 to 171 | Cc1cnc2c(NC(=O)c3c(Cl)cccc3Cl)cccc2c1OCC=Cc1ccccc1 |
| 108 to 110 | COC(=O)c1sc(C(C)C)cc1NC(=O)Nc1ccccc1 |
| 213 to 215 | Cc1cc(Nc2cncc(Nc3ccc(Cl)c(C(=O)N(C)C)c3)n2)n[nH]1 |
| 109 to 110 | CC(=O)NC[C@H]1CN(c2ccc(C3CCNCC3)c(F)c2)C(=O)O1 |
| 268 | COc1ccc2[nH]cc(C3=C(c4cc(OC)c(OC)c(OC)c4)C(=O)NC3=O)c2c1 |
| 162 to 164 | CC1=C(C(=O)OC(C)C)C(c2cccc([N+](=O)[O-])c2)n2c(cc(=O)n2C(=O)OC(C)C)N1 (centres undefined) |
| 147 to 148 | COc1cc(N)c(Cl)cc1C(=O)NCC1CCN(CCCS(=O)(=O)Cc2ccc(F)cc2)CC1 |
| 55 to 56 | CC(C)(C)c1c(=O)o[n-][n+]1CCSC12CC3CC(CC(C3)C1)C2 |
| 100 to 101 | COc1ccc(OC(=O)c2c(Cl)cccc2Cl)cc1OC1CCCC1 |
| 69 to 70 | C=CCOc1ccc2ccc(OCC(=O)OC)cc2c1 |
| 212 to 214 | CC(=O)Nc1ccc(Sc2nc(Nc3cc(C)n[nH]3)cc(-c3ccccc3C)n2)cc1 |
| 181 to 184 | CCCCCCCCCCCCc1c[nH]c2cc(C(=O)O)ccc12 |
| 103 to 105 | CCCCc1nc(C(=O)C(C)(C)C)c(C#N)n1Cc1ccc(-c2ccccc2-c2nnnn2C(c2ccccc2)(c2ccccc2)c2ccccc2)cc1 |

| melting point [°C] | Structure (SMILES) |
| --- | --- |
| 163 to 164 | Cc1ccc2c(Sc3cc(Cl)cc(Cl)c3)c(CCCC(N)=O)[nH]c2c1 |
| 47 to 48 | CCOC(=O)Nc1cc([N+](=O)[O-])cc(CC)c1C(=O)OCC |
| 248 | O=C(O)c1nc2c(=O)[nH]c3cc(C(F)(F)F)ccc3n2c1CNCc1ccccc1 |
| 121 to 122 | COc1ccc([N+](=O)[O-])c(NCCO)n1 |
| 136 to 137 | CO[C@]1(c2cc(F)cc(Sc3ccc4c(c3)CC/C4=N\O)c2)CCO[C@@H]1C (racemic) |
| 81 | Cc1nc(Br)n(C)c1-c1nc(C2CC2)no1 |
| 152 to 154 | CCOCc1nc2c(N)nc3cc(-c4cccc(C(=O)N5CCOCC5)c4)ccc3c2n1CC(C)(C)O |
| > 301 | Cc1[nH]n(C)c2nc(-c3ccncc3)nc(=O)c1-2 |
| 96 to 98 | CS(=O)(=O)Oc1ccc2cc(CO)ccc2c1 |
| 247 | COc1ccc(-c2n[nH]c3c2Cc2ccccc2-3)cc1 |
| 247 | CN(C)C(=O)C=Cc1ccc(C=CC(=O)N(C)C)cc1 |
| 82 to 83 | Cc1nn(-c2c(Cl)cc(C(F)(F)F)cc2Cl)c(C)c1C=O |
| 144 | CCCCCNC(=O)N(C)c1cccc(-c2ccc(C=C(OC)C(=O)O)cc2)c1 |
| 144 to 145 | COc1ccc(CCSc2c(O)cc(-c3ccccc3)oc2=O)cc1 |
| 226 to 230 | O=c1cc(-c2ccccc2)cc[nH]1 |
| 146 to 148 | O=C1SCCN1Cc1ccc([N+](=O)[O-])cc1 |
| 200 to 201 | CCc1cccc(CC)c1NC(=O)NCC(c1ccccc1)c1ccccc1 |
| 69 | Cc1ccc(C)n1-c1ccc(Br)cn1 |
| 73 to 74 | COC(=O)CCc1ccc(OC2Cc3ccccc3C2)cc1 |
| 212 to 214 | CC(C)Oc1ccc(-n2c(CC(=O)O)c(C(=O)O)c3cc(Oc4ncccc4C(=O)O)ccc32)cc1 |
| 100 to 110 | CC(C)CON=Cc1ccc2c(c1)c1cc(-c3ccc(Cl)cc3Cl)c(=O)n(C)c1n2C |
| 148 to 150 | O=C1N(Cc2ccc(-c3ccccc3Cl)o2)c2ccccc2C12COc1cc3c(cc12)OCO3 (centres undefined) |

| Structure (SMILES) | melting point [°C] |
| --- | --- |
| CC(=O)NC[C@H]1CN(c2ccc(N3CCC4(CC3)CS4)c(F)c2)C(=O)O1 | 152 to 154 |
| CCOC(=O)c1c(C)n(Cc2ccc3ccccc3n2)c2ccc(OCc3ccc4ccccc4n3)cc12 | 162 to 163 |
